According to patent US6894037B2, “2-methylene-19-nor-20(S)-25-methyl-1α-hydroxycalciferol and its uses” (Wisconsin Alumni Research Foundation, priority 2003, dated 2005):
“Also recorded” adds a separate entry of the source.

How the values were obtained:
CD-1 mice [1] = test: Bone calcium mobilization: serum calcium of mice fed 0.02% calcium diet after single oral dose; assay type: in vivo; conditions: for Bone Calcium Mobilization (serum calcium): single oral gavage, 0.02% calcium diet; for Bone calcium mobilization activity (bone resorption in vivo), in words: single oral dose, mice on 0.02% calcium diet
Text: Goal: Determine whether or not TMM has bone calcium mobilization activity and how it compares to 1,25(OH)2D3 and 2-methylene-19-nor-20(S)-1α, 25-(OH)2D3 (hereinafter referred to as 2MD).
5-6 week old CD-1 mice were placed in the +D mouse room and fed chow diet. They were allowed to acclimate for 5 days before being switched to a purified diet described by Yang et al (Arch. Biochem. Biphys. 303, 98, 1993) containing 0.02% calcium and 0.3% P. Two days after the diet switch, dose administration began. Experimental Design:
All animals were weighed prior to dosing. The animals were divided into groups containing 5 animals/group. All animals were administered the drug by oral gavage one time. The dose was delivered in 100 μl Neobee oil/25 g mouse. […] The rise in serum calcium comes from bone mobilization only since no calcium is available from the intestine.
Mice fed a 0.02% calcium diet can only elevate their serum calcium levels by resorbing bone because no calcium is available through intestinal absorption. […] At lower doses, there was no significant elevation of serum calcium. […] Thus, the importance of the 25-hydroxyl for bone calcium mobilization is illustrated.

[2] = previous work; cited from earlier work
[3] = system: porcine intestinal vitamin D receptor; test: Competitive binding to the porcine intestinal vitamin D receptor, displacement of [3H]-1,25-(OH)2-D3; conditions: compared with the native hormone 1,25-(OH)2D3; FIG. 1
Method: FIG. 1 is a graph illustrating the relative activity of 2-methylene-19-nor-20(S)-25-methyl-1α-hydroxycalciferol or 1α,25-dihydroxyvitamin D3 to compete for binding of [3H]-1,25-(OH)2—D3 to the vitamin D pig intestinal nuclear receptor;
Competitive binding of the analog to the porcine intestinal receptor was carried out by the method described by Dame et al (Biochemistry 25, 4523-4534, 1986).
Competitive binding of 1α, 25-(OH)2D3 and the synthesized vitamin D analog to the porcine intestinal vitamin D receptor was carried out in triplicate on two different occasions. ED50 values can be derived from dose-response curves (FIG. 1) and represent the analog concentration required for 50% displacement of the radiolabeled 1α,25-(OH)2D3 from the receptor protein. Binding ratio can then be determined from the ratio of the analog average ED50 to the ED50 for 1α,25-(OH)2D3.

HL-60 promyelocytes = test: Differentiation of HL-60 promyelocytes into monocytes (NBT reduction); assay type: cell-based; conditions: compared with 1,25-(OH)2D3; FIG. 2
Method: FIG. 2 is a graph illustrating the percent HL-60 cell differentiation as a function of the concentration of 2-methylene-19-nor-20(S)-25-methyl-1α-hydroxycalciferol or 1α,25-dihydroxyvitamin D3; and
The differentiation of HL-60 promyelocytes into monocytes was determined as described by Ostrem et al (J. Biol. Chem. 262, 14164-14171, 1987).
Induction of differentiation of HL-60 promyelocytes to monocytes by 1α,25-(OH)2D3 and the synthesized vitamin D analog was determined by measuring the percentage of cells reducing nitro blue tetrazolium (NBT). The experiment was repeated three times. The values ED50 can be derived from dose-response curves (FIG. 2) and represent the analog concentration capable of inducing 50% maturation. Differentiation activity ratio can then be determined from the ratio of the analog average ED50 to the ED50 for 1α,25-(OH)2D3.

CD-1 mice [4] = test: Intestinal calcium transport: serum calcium of alendronate-treated mice on 0.47% calcium diet; assay type: in vivo; conditions: FIG. 3
Text: FIG. 3 is a graph illustrating serum calcium versus time of mice injected with vehicle plus alendronate, with 1α,25-dihydroxyvitamin D3 plus alendronate, or with 2-methylene-19-nor-20(S)-25-methyl-1α-hydroxycalciferol (TMM) plus alendronate. Since alendronate blocks bone resorption the rise in serum calcium reflects only intestinal absorption.
In this measurement, alendronate is used to block bone resorption so the rise in serum calcium is because of increased calcium absorption from the intestine.
Goal: Determine whether or not TMM has intestinal calcium transport activity and how it compares to 1,25(OH)2D3.
5-6 week old CD-1 mice were placed in the +D mouse room and fed chow diet. They were allowed to acclimate for 7 days before being switched to a diet containing 0.47% calcium.
All animals were weighed prior to dosing and divided into groups containing 5 animals/treatment group. […] Once all time points were collected, the serum was diluted 1:50 in 0.1% Lanthum Chloride and analyzed by atomic absorption spectrometry for determination of total serum calcium levels. • Group 1: Neobee oil+Alendronate (1.75 mg/kg bw) • Group 2: 40.5 ug 1,25(OH)2D3/kg bw+Alendronate (1.75 mg/kg bw) • Group 3: 4.5 ug TMM/kg bw+Alendronate (1.75 mg/kg bw) • Group 4: 13.5 ug TMM/kg bw+Alendronate (1.75 mg/kg bw) • Group 5: 40.5 ug TMM/kg bw+Alendronate (1.75 mg/kg bw) Results: […]

| SMILES | Bone calcium mobilization activity (bone resorption in vivo), in words (CD-1 mice [1]; Table 1) | Bone Calcium Mobilization (serum calcium) (CD-1 mice [1]; 0.5 μg/kg, 0 hr (predose)) [mg/dL] | Bone Calcium Mobilization (serum calcium) (CD-1 mice [1]; 0.5 μg/kg, 24 hr) [mg/dL] | Bone Calcium Mobilization (serum calcium) (CD-1 mice [1]; 0.5 μg/kg, 48 hr) [mg/dL] | Bone Calcium Mobilization (serum calcium) (CD-1 mice [1]; 0.5 μg/kg, 72 hr) [mg/dL] | Bone Calcium Mobilization (serum calcium) (CD-1 mice [1]; 1.5 μg/kg, 0 hr (predose)) [mg/dL] | Bone Calcium Mobilization (serum calcium) (CD-1 mice [1]; 1.5 μg/kg, 24 hr) [mg/dL] | Bone Calcium Mobilization (serum calcium) (CD-1 mice [1]; 1.5 μg/kg, 48 hr) [mg/dL] | Bone Calcium Mobilization (serum calcium) (CD-1 mice [1]; 1.5 μg/kg, 72 hr) [mg/dL] | Bone Calcium Mobilization (serum calcium) (CD-1 mice [1]; 4.5 μg/kg, 0 hr (predose)) [mg/dL] | Bone Calcium Mobilization (serum calcium) (CD-1 mice [1]; 4.5 μg/kg, 24 hr) [mg/dL] | Bone Calcium Mobilization (serum calcium) (CD-1 mice [1]; 4.5 μg/kg, 48 hr) [mg/dL] | Bone Calcium Mobilization (serum calcium) (CD-1 mice [1]; 4.5 μg/kg, 72 hr) [mg/dL] | Bone Calcium Mobilization (serum calcium) (CD-1 mice [1]; 13.5 μg/kg, 0 hr (predose)) [mg/dL] | Bone Calcium Mobilization (serum calcium) (CD-1 mice [1]; 13.5 μg/kg, 24 hr) [mg/dL] | Bone Calcium Mobilization (serum calcium) (CD-1 mice [1]; 13.5 μg/kg, 48 hr) [mg/dL] | Bone Calcium Mobilization (serum calcium) (CD-1 mice [1]; 13.5 μg/kg, 72 hr) [mg/dL] | further results |
| --- | --- | --- | --- | --- | --- | --- | --- | --- | --- | --- | --- | --- | --- | --- | --- | --- | --- | --- |
| C=C1/C(=C\C=C2/CCC[C@]3(C)[C@@H]([C@H](C)CCCC(C)(C)O)CC[C@@H]23)C[C@@H](O)C[C@@H]1O [1α,25(OH)2D3, 1α,25-dihydroxyvitamin D3] | effective at 50 μg/kg bw and 450 μg/kg bw | – | – | – | – | – | – | – | – | – | – | – | – | – | – | – | – | Bone Calcium Mobilization (serum calcium) (CD-1 mice [1]; 50 μg/kg, 0 hr (predose)): 8.8 ± 0.2 mg/dL; Bone Calcium Mobilization (serum calcium) (CD-1 mice [1]; 50 μg/kg, 24 hr): 10.9 ± 0.1 mg/dL; Bone Calcium Mobilization (serum calcium) (CD-1 mice [1]; 50 μg/kg, 48 hr): 9.6 ± 0.3 mg/dL; Bone Calcium Mobilization (serum calcium) (CD-1 mice [1]; 50 μg/kg, 72 hr): 9.1 ± 0.2 mg/dL; Bone Calcium Mobilization (serum calcium) (CD-1 mice [1]; 450 μg/kg, 0 hr (predose)): 8.8 ± 0.2 mg/dL; Bone Calcium Mobilization (serum calcium) (CD-1 mice [1]; 450 μg/kg, 24 hr): 11.6 ± 0.3 mg/dL; Bone Calcium Mobilization (serum calcium) (CD-1 mice [1]; 450 μg/kg, 48 hr): 11.4 ± 0.7 mg/dL; Bone Calcium Mobilization (serum calcium) (CD-1 mice [1]; 450 μg/kg, 72 hr): 9.4 ± 0.4 mg/dL; Intestinal calcium absorption activity relative to 2-methylene-19-nor-20(S)-1α, 25-(OH)2D3 [2]: about the same activity |
| C=C1[C@H](O)CC(=C/C=C2\CCC[C@]3(C)[C@@H]([C@@H](C)CCCC(C)(C)O)CC[C@@H]23)C[C@H]1O [2MD, 2-methylene-19-nor-20(S)-1α, 25-(OH)2D3] | – | 8.8 ± 0.3 | 9.4 ± 0.2 | 9.2 ± 0.2 | 8.9 ± 0.2 | 8.8 ± 0.2 | 10.1 ± 0.1 | 10.5 ± 0.2 | 10.1 ± 0.2 | 8.8 ± 0.0 | 10.9 ± 0.2 | 12.6 ± 0.5 | 12.0 ± 0.4 | 8.6 ± 0.1 | 11.5 ± 0.4 | 10.8 ± 0.5 | 13.4 ± 0.6 | – |
| C=C1[C@H](O)CC(=C/C=C2\CCC[C@]3(C)[C@@H]([C@@H](C)CCCC(C)(C)C)CC[C@@H]23)C[C@H]1O [TMM, 2-methylene-19-nor-20(S)-25-methyl-1α-hydroxycalciferol] | only at the highest dose caused bone resorption in vivo; also recorded: very little bone calcium mobilization activity | 8.7 ± 0.2 | 8.8 ± 0.1 | 8.7 ± 0.1 | 8.7 ± 0.1 | 8.7 ± 0.2 | 8.7 ± 0.2 | 8.6 ± 0.1 | 8.9 ± 0.2 | 8.5 ± 0.3 | 9.0 ± 0.1 | 8.9 ± 0.1 | 8.8 ± 0.2 | 8.8 ± 0.1 | 9.7 ± 0.2 | 9.9 ± 0.3 | 9.5 ± 0.3 | Binding to the vitamin D receptor relative to 1,25-(OH)2D3 [3]: one-tenth as well; HL-60 differentiation activity relative to 1,25-(OH)2D3 (HL-60 promyelocytes): essentially equal to that of 1,25-(OH)2D3; Activity in raising serum calcium (bone calcium mobilization) relative to 1,25-(OH)2D3 (CD-1 mice [1]; compared with 1,25-(OH)2D3, Table 1): approximately equal to 1,25-(OH)2D3; also recorded: below that of the native hormone; Activity in raising serum calcium (bone calcium mobilization) relative to 2MD (CD-1 mice [1]; compared with 2MD, Table 1): one-tenth as active as 2MD; also recorded: fell far below; Intestinal calcium transport activity, in words (CD-1 mice [4]): more intestinal calcium transport activity than does 1,25(OH)2D3; also recorded: very strong effect on intestinal calcium absorption |
